Measurements from ChEMBL document CHEMBL1132037, “Anabaenopeptins G and H, potent carboxypeptidase A inhibitors from the cyanobacterium Oscillatoria agardhii (NIES-595)” (Bioorg Med Chem Lett, 1999).
≈ marks a conversion by molar mass, not a printed value. Numbered stars: 1 amine (or outer) side, 2 acyl side, 3 side chain; on linkers, the order of the positions; unused ones are H or OH. Bridge positions count the residues as written; N and C are the ends. Square brackets hold non-standard residues; d marks the D form. Peptide text beside a SMILES is read from it. NMehTyr = CN[C@@H](CCc1ccc(O)cc1)C(=O)O; hTyr = N[C@@H](CCc1ccc(O)cc1)C(=O)O; NMeA = CN[C@@H](C)C(=O)O; CO = O=C([*:1])[*:2]

Each molecule was assayed against Carboxypeptidase A1 (Bos taurus) (UniProt P00730) (assay: Ability to inhibit Carboxypeptidase A from bovine pancreas at a concentration of 50 ug/mL; No Activity).

IC50 | Structure (SMILES)
Not Active | COc1ccc(CC[C@@H]2NC(=O)[C@H](C(C)C)NC(=O)[C@H](NC(=O)N[C@@H](CCCN=C(N)N)C(=O)O)CCCCNC(=O)[C@H](Cc3ccccc3)NC(=O)[C@H](C)N(C)C2=O)cc1
Not Active | CC(C)[C@@H]1NC(=O)[C@H](NC(=O)N[C@@H](CCCNC(=N)N)C(=O)O)CCCCNC(=O)[C@H](Cc2ccccc2)NC(=O)[C@H](C)N(C)C(=O)[C@H](CCc2ccc(O)cc2)NC1=O [ANABAENOPEPTIN B] ({Arg-CO}-[dK]V[hTyr][NMeA]F; lactam 1-C)
Not Active | CC[C@H](C)[C@@H]1NC(=O)[C@H](NC(=O)N[C@@H](CCCNC(=N)N)C(=O)O)CCCCNC(=O)[C@H](Cc2ccccc2)NC(=O)[C@H](C)N(C)C(=O)[C@H](CCc2ccc(O)cc2)NC1=O [ANABAENOPEPTIN F] ({Arg-CO}-[dK]I[hTyr][NMeA]F; lactam 1-C)

Each molecule was assayed against Carboxypeptidase A1 (Bos taurus) (UniProt P00730) (assay: Ability to inhibit Carboxypeptidase A from bovine pancreas).

IC50 [µg/mL] | Structure (SMILES)
0.0018 (≈ 0.00194 µM) | CC[C@H](C)[C@@H]1NC(=O)[C@H](NC(=O)NC(Cc2ccc(O)cc2)C(=O)O)CCCCNC(=O)[C@H]([C@@H](C)CC)NC(=O)[C@H](CCc2ccc(O)cc2)N(C)C(=O)[C@H](CCc2ccc(O)cc2)NC1=O (stereo partly specified)
3.4 (≈ 3.68 µM) | CC[C@H](C)[C@@H]1NC(=O)[C@H](NC(=O)N[C@@H](CCCNC(=N)N)C(=O)O)CCCCNC(=O)[C@H]([C@@H](C)CC)NC(=O)[C@H](CCc2ccc(O)cc2)N(C)C(=O)[C@H](CCc2ccc(O)cc2)NC1=O [ANABAENOPEPTIN H] ({Arg-CO}-[dK]I[hTyr][NMehTyr]I; lactam 1-C)

Structure (SMILES) | IC50 [µg/mL]
CC[C@H](C)[C@H](NC(=O)N[C@@H]1CCCCNC(=O)[C@H]([C@@H](C)CC)NC(=O)[C@H](CCc2ccc(O)cc2)N(C)C(=O)[C@H](CCc2ccc(O)cc2)NC(=O)[C@H](C(C)C)NC1=O)C(=O)O [ANABAENOPEPTIN T] | 2 (≈ 2.31 µM)
